Reference: ChEMBL document CHEMBL5506033, “Brain-Penetrant Macrocycles: Design Considerations, Future Prospects, and Call for Papers” (J Med Chem, 2024)

Experiments:
[1] = Half life in human; assay type: ADME
[2] = Oral bioavailability in human; assay type: ADME, organism-based; conditions: in vivo

half-life [1]: ~25 h
bioavailability [2]: 81%
SMILES: C[C@H]1Oc2cc(cnc2N)-c2c(nn(C)c2C#N)CN(C)C(=O)c2ccc(F)cc21 [LORLATINIB]
